# Data published in patent publication US7393846B2, “Heterocyclic compounds useful for the treatment of inflammatory and allergic disorders” (Glenmark Pharmaceuticals, S.A., priority 2003, dated 2008).
# Tests used:
# [1] = molecular target: PDE4 enzyme; test: Inhibition of Phosphodiesterase Enzymes (PDE4), [3H]cAMP hydrolysis assay; type: biochemical; settings: for IC50: PDE4 inhibition, 1 μM cAMP, 34° C., 20 minutes
# Description: Inhibition of Phosphodiesterase Enzymes (PDE4)
# In this assay, PDE4 enzyme converts [^3H] cAMP to the corresponding [^3H] 5′-AMP in proportion to the amount of PDE4 present. The [^3H] 5′-AMP then was quantitatively converted to free [^3H] adenosine and phosphate by the action of snake venom 5′-nucleotidase.
# The assay was performed with modification of the method of Thompson and Appleman (Biochemistry; 1971; 10; 311-316) and Schwartz and Passoneau (Proc. Natl. Acad. Sci. U.S.A. 1974; 71; 3844-3848), both references incorporated herein by reference in their entirety, at 34° C. In a 200 ul total reaction mixture, the reaction mixture contained 12.5 mM of Tris, 5 mM MgCl2, 1 μM cAMP (cold) and ^3H cAMP (0.1 uCi), (Amersham). […] Drug samples were then added in the reaction mixture (25 μt/tube). The assay was initiated by addition of enzyme mix (75 μl) and the mixture was incubated for 20 minutes at 34° C. The reaction was stopped by boiling the tubes for 2 mins at 100° C. in a water bath. After cooling on ice for 5 minutes and addition of 50 ug/reaction of 5′-nucleotidase snake venom from Crotalus atrox incubation was carried out again for 20 min. at 34° C. The unreacted substrate was separated from (^3H) Adenosine by addition of Dowex AG 1-X8 (Biorad Lab), (400 ul) which was prequilibrated (1:1:1) in water and ethanol. Reaction mixture was then thoroughly mixed, placed on ice for 15 minutes, vortexed and centrifuged at 14,000 r.p.m. for 2 mins. After centrifugation, a sample of the supernatant was taken and added in 24 well optiplates containing Scintillant (1 ml) and mixed well. The samples in the plates were then determined for radioactivity in a Top Counter and the PDE4 activity was estimated. PDE4 enzyme was present in quantities that yield <30% total hydrolysis of substrate (linear assay conditions).
# Results were expressed as percent inhibition (IC50) in nM concentrations. The IC50 values were determined from the concentration curves by nonlinear regression analysis.
# [2] = tested on: PDE4; test: EC50 of the PDE4 results table (method not given)
Compound,IC50 [1] [nM],EC50 [2] [nM],melting point [°C],percent inhibition ([1]; PDE4 inhibition at 1 uM) [% at 1 uM]
"COc1ccc(C(=O)Nc2cccnc2)c2c1oc1ccc(NC(C)=O)cc12 [Example 46, N1-(pyrid-3-yl)-4-methoxy-8-acetamido-dibenzo[b,d]furan-1-carboxamide]",134,,> 250,
"COc1ccc(C(=O)NCc2ccccc2)c2c1oc1ccc(NC(C)=O)cc12 [Example 43, N1-benzyl-4-methoxy-8-acetamido-dibenzo[b,d]furan-1-carboxamide]",,,264 to 265,17.93
"COc1ccc(NC(=O)c2ccc(OC)c3oc4ccc(NC(C)=O)cc4c23)cc1 [Example 42, N1-(4-methoxyphenyl)-4-methoxy-8-acetamido-dibenzo[b,d]furan-1-carboxamide]",959,,285,
"COc1ccc(C(=O)Nc2c(Cl)cncc2Cl)c2c1oc1ccc(NC(=O)N3CCN(C)CC3)cc12 [Example 22, N-(3,5-dichloropyrid-4-yl)-4-methoxy-8-(N-methylpiperazin-4-ylcarboxamido)-dibenzo[b,d]furan-1-carboxamide]",1.28,9.34,,
"COc1ccc(C(=O)Nc2c(Cl)cncc2Cl)c2c1oc1ccc(NC(=O)N3CCOCC3)cc12 [Example 25, N-(3,5-dichloropyrid-4-yl)-4-methoxy-8-(morphol-4-ylcarboxamido)-dibenzo[b,d]furan-1-carboxamide]",5.07,8.9,,
"COc1ccc(C(=O)Nc2c(Cl)cncc2Cl)c2c1oc1ccc(NC(=O)Oc3ccccc3)cc12 [Example 17, N-(3,5-dichloropyrid-4-yl)-4-methoxy-8-phenoxycarboxamido-dibenzo[b,d]furan-1-carboxamide]",9.09,104,,
"COc1ccc(C(=O)Nc2ccccc2)c2c1oc1ccc(NC(C)=O)cc12 [Example 41, N1-phenyl-4-methoxy-8-acetamido-dibenzo[b,d]furan-1-carboxamide]",156,,252,
"COc1ccc(C(=O)Nc2c(Cl)cncc2Cl)c2c1oc1ccc(NC(=O)C(=O)O)cc12 [Example 09, N-(3,5-dichloropyrid-4-yl)-4-methoxy-8-hydroxycarbonylcarboxamido-dibenzo[b,d]furan-1-carboxamide]",1.03,138,,
"COc1ccc(C(=O)Nc2ccncc2)c2c1oc1ccc(NC(C)=O)cc12 [Example 49, N-(pyrid-4-yl)-4-methoxy-8-acetamido-dibenzo[b,d]furan-1-carboxamide]",13.2,,267 to 268,

# Results, then the compound that gave them:
IC50 [1] [nM],EC50 [2] [nM],melting point [°C],percent inhibition ([1]; PDE4 inhibition at 1 uM) [% at 1 uM],Compound
3.55,14.8,234,,"CC(=O)Nc1ccc2oc3c(OC(F)F)ccc(C(=O)Nc4c(Cl)cncc4Cl)c3c2c1 [Example 34, N-(3,5-dichloropyrid-4-yl)-4-difluoromethoxy-8-acetamido-dibenzo[b,d]furan-1-carboxamide]"
15.1,,274,,"CCOC(=O)Nc1ccc2oc3c(OC)ccc(C(=O)Nc4c(Cl)cncc4Cl)c3c2c1 [Example 15, N-(3,5-dichloropyrid-4-yl)-4-methoxy-8-ethoxycarboxamido-dibenzo[b,d]furan-1-carboxamide]"
1.72,3.93,260,,"CCNC(=S)Nc1ccc2oc3c(OC)ccc(C(=O)Nc4c(Cl)cncc4Cl)c3c2c1 [Example 44, N-(3,5-dichloropyrid-4-yl)-4-methoxy-8-(ethylaminothiocarboxamido)-dibenzo[b,d]furan-1-carboxamide]"
3.47,19.1,272,,"COc1ccc(C(=O)Nc2c(Cl)cncc2Cl)c2c1oc1ccc(NC(=O)OCC3CC3)cc12 [Example 18, N-(3,5-dichloropyrid-4-yl)-4-methoxy-8-cyclopropylmethoxycarboxamido-dibenzo[b,d]furan-1-carboxamide]"
9.93,147,> 250,,"CCOC(=O)CNC(=O)Nc1ccc2oc3c(OC)ccc(C(=O)Nc4c(Cl)cncc4Cl)c3c2c1 [Example 50, N-(3,5-dichloropyrid-4-yl)-4-methoxy-8-(2-ethoxy-2-oxo-ethylaminocarbonylamino)-dibenzo[b,d]furan-1-carboxamide]"
1.18,13.6,252,,"COc1ccc(C(=O)Nc2c(Cl)cncc2Cl)c2c1oc1ccc(NC(C)=O)cc12 [Example 04, N-(3,5-dichloropyrid-4-yl)-4-methoxy-8-acetamido-dibenzo[b,d]furan-1-carboxamide]"
1.4,6.33,,,"CCNC(=O)Nc1ccc2oc3c(OC)ccc(C(=O)Nc4c(Cl)cncc4Cl)c3c2c1 [Example 28, N-(3,5-dichloropyrid-4-yl)-4-methoxy-8-ethylamino carboxamido-dibenzo[b,d]furan-1-carboxamide]"
4.64,8.44,,,"O=C(Nc1c(Cl)cncc1Cl)c1ccc(OC(F)F)c2oc3ccc(NC(=O)C4CC4)cc3c12 [Example 36, N-(3,5-dichloropyrid-4-yl)-4-difluoromethoxy-8-cyclopropylcarboxamido-dibenzo[b,d]furan-1-carboxamide]"
21.5,> 278,,,"CCOC(=O)C(=O)Nc1ccc2oc3c(OC(F)F)ccc(C(=O)Nc4c(Cl)cncc4Cl)c3c2c1 [Example 37, N-(3,5-dichloropyrid-4-yl)-4-difluoromethoxy-8-ethoxycarbonylcarboxamido-dibenzo[b,d]furan-1-carboxamide]"
10.3,8.29,> 250,,"CCN(CC)C(=O)Nc1ccc2oc3c(OC)ccc(C(=O)Nc4c(Cl)cncc4Cl)c3c2c1 [Example 20, N-(3,5-dichloropyrid-4-yl)-4-methoxy-8-N,N-diethylaminocarboxamido-dibenzo[b,d]furan-1-carboxamide]"
7.01,14.1,> 300,,"COc1ccc(C(=O)Nc2c(Cl)cncc2Cl)c2c1oc1ccc(NC(=O)C(F)(F)F)cc12 [Example 14, N-(3,5-dichloropyrid-4-yl)-4-methoxy-8-trifluoroacetamido-dibenzo[b,d]furan-1-carboxamide]"
1.05,71.5,,,"COc1ccc(C(=O)Nc2c(Cl)cncc2Cl)c2c1oc1ccc(NCC(=O)O)cc12 [Example 53, N-(3,5-dichloropyrid-4-yl)-4-methoxy-8-(2-hydroxy-2-oxo-ethylamino)-dibenzo[b,d]furan-1-carboxamide]"
